Data on 16 compounds can be found in patent publication US9657288B2, “Connector compound peptide phage display” (BICYCLE THERAPEUTICS LIMITED, priority 2008, dated 2017).

*1 amine or outer side, *2 acyl side, *3 side chain or, on linkers, in order; H or OH if unused. Where a SMILES comes first, the peptide text is derived from it. Bridges are numbered along the chain shown (N, C = ends). TBMB = c1c(C[*:1])cc(C[*:3])cc1C[*:2]

Data set [1] addresses T1, plasma kallikrein (Homo sapiens, UniProt P03952). The data set is described as follows: Activity measurement of chemically synthesized human plasma kallikrein inhibitors (residual activity, Z-Phe-Arg-AMC). Further details: purchased Innovative Research (Southfiled, Mich., USA). The format is biochemical. The note with it: for IC50: synthetic peptide after modification with TBMB, human plasma kallikrein 0.1 nM, read-out: IC50 (nM) Bi-cyclic peptide. The protocol:
(§1) Recombinant mouse plasma kallikrein from R&D Systems (Minneapolis, Minn., USA) with a signal peptide was proteolytically activated with 0.5 mg/ml thermolysin at 37° C. for 1 hr. […] Inhibitor hydrolysed in one binding loop was generated by incubation of TBMB modified peptide PK15 with human plasma kallikrein at a molar ration of 5:1 for 24 hours at 37° C. and subsequent heat inactivation of the enzyme at 60° C. (30 min). Apparent Ki values were calculated according to the Cheng and Prusoff equation (Cheng, Y. and Prusoff, W. H., Biochem. Pharmacol., 1973).
(§2) Recombinant mouse plasma kallikrein from R&D Systems (Minneapolis, Minn., USA) with a signal peptide was proteolytically activated with 0.5 mg/ml thermolysin at 37° C. for 1 hr. […] Inhibitor hydrolysed in one binding loop was generated by incubation of TBMB modified peptide PK15 with human plasma kallikrein at a molar ratio of 5:1 for 24 hours at 37° C. and subsequent heat inactivation of the enzyme at 60° C. (30 min). Apparent Ki values were calculated according to the Cheng and Prusoff equation.

Data set [2] relates to thrombin generation in human plasma. Briefly: Contact activation in human plasma: thrombin activation time triggered by actin. The format is biochemical. Particulars: for thrombin formation in human plasma: 50 nM inhibitor concentration.
For data set [3], the system named is factor XIIa and plasma kallikrein in human plasma. The data set is described as follows: Activation of factor XIIa and plasma kallikrein in human plasma after kaolin (H-D-Pro-Phe-Arg-pNA). Format: biochemical. The note with it: for IC50: human plasma, kaolin, read-out: inhibitor concentration required to reduce factor XIIa activity by 50%. The protocol:
(§3) Normal human plasma from single donors was purchased from 3H Biomedical (Uppsala, Sweden). The plasma was centrifuged at 1500×g at 20° C. for 15 minutes to obtain platelet-poor plasma (PPP). Aliquots of the PPP were stored in polypropylene tubes at −80° C. […] Activation of factor XIIa and human plasma kallikrein were measured as follows. 2 μg kaolin was added to the plasma samples, mixed well and incubated for 20 minutes at 37° C. The samples were diluted 250-fold in 50 mM Tris-Cl pH 7.8, 150 mM NaCl. Plasma kallikrein-like activity was measured with the chromogenic substrate H-D-Pro-Phe-Arg-pNA (100 μM; Bachem, Bubendorf, Switzerland) using an absorption plate reader (absorption at […]; Molecular Devices, Sunnyvale, Calif., USA).
as §3, with “was” for “and human plasma kallikrein were”, “μg of” for “μg”, “H-D-Pro-Phe-Arg (SEQ ID No. 37)-pNA” for “H-D-Pro-Phe-Arg-pNA”, “USA). The same chromogenic substrate is also recognized and modified by plasma kallikrein.” for “USA).”

The target of another data set is T2, mouse plasma kallikrein (Mus musculus, UniProt P26262).
T2 construct: purchased R&D Systems (Minneapolis, Minn., USA)
Briefly: Specificity measurement, mouse plasma kallikrein. Format: biochemical. Particulars: highest concentration tested 10 μM. The protocol: as §1, §2

In the next data set the target is T3, human thrombin (Homo sapiens, UniProt P00734).
T3 construct: the activity of human thrombin (2 nM; Innovative Research, Southfiled, Mich., USA); purchased Innovative Research (Southfiled, Mich., USA)
Briefly: Specificity measurement, thrombin. Format: biochemical. The note with it: highest concentration tested 10 μM.

In data set [4] the target is T1, plasma kallikrein. The data set is described as follows: Hydrolysis of the inhibitor on incubation with human plasma kallikrein. Format: in vitro ADME. Further details: purchased Innovative Research (Southfiled, Mich., USA). The protocol: as §1, §2
A further data set has as its target T4, factor XIa (Homo sapiens, UniProt P03951).
T4 construct: factor XIa (0.8 nM; Innovative Research, Southfiled, Mich., USA); purchased Innovative Research (Southfiled, Mich., USA)
The data set is described as follows: Specificity measurement, factor XIa. The format is biochemical. The note with it: highest concentration tested 10 μM.

A further data set has as its target Chymotrypsin (Bos taurus, UniProt P00766). The note with it: reference 5; read-out: Affinity K1; cited from earlier work.
For a further data set, the target named is DNase II. Particulars: reference 12; read-out: Affinity K1; cited from earlier work.
The target of data set [5] is Urokinase-type plasminogen activator (uPA) (Mus musculus, UniProt P06869). The note with it: reference 4; read-out: Affinity K1; cited from earlier work.
The next data set addresses T5, Pancreatic lipase (Sus scrofa, UniProt P00591).
T5 sequence (P00591 1-450): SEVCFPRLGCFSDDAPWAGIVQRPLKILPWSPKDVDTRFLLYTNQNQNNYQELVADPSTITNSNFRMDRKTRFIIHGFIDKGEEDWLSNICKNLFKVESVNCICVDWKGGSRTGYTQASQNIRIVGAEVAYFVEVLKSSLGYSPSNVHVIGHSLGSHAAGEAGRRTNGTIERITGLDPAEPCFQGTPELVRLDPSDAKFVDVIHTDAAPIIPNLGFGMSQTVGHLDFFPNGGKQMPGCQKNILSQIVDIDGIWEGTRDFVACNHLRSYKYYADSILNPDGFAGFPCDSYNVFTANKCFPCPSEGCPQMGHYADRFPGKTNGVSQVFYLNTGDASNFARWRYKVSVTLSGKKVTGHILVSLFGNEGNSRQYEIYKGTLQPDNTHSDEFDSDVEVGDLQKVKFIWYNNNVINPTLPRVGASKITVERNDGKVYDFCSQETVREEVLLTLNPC
The note with it: reference 10; read-out: Affinity IC50; cited from earlier work.

Data set [6] addresses Urokinase-type plasminogen activator (uPA) (Homo sapiens, UniProt P00749). The note with it: reference 3; read-out: Affinity K1; cited from earlier work.
The target in the next data set is Beta-lactamase (Stenotrophomonas maltophilia, UniProt P52700). Particulars: reference 11; read-out: Affinity IC50; cited from earlier work.
Another data set deals with TF-fVII (Homo sapiens, UniProt P08709). The note with it: reference 6; read-out: Affinity IC50; cited from earlier work.
Data set [7] addresses Angiotensin converting enzyme 2 (ACE2) (Homo sapiens, UniProt Q9BYF1). Particulars: reference 7; read-out: Affinity K1; cited from earlier work.
The next data set addresses ErbB-2 (Homo sapiens, UniProt P04626). The note with it: reference 8; read-out: Affinity K1; cited from earlier work.
The next data set deals with Human kallikrein 2 (Homo sapiens, UniProt P20151). The note with it: reference 2; read-out: Affinity IC50; cited from earlier work.
The target of a further data set is Urease (Helicobacter pylori, UniProt P14916+P69996). Particulars: read-out: Affinity IC50; reference 9; cited from earlier work.
The conditions of data set [8]: in vivo; cited from earlier work.

T1 sequence (P03952 391-638 limits assumed): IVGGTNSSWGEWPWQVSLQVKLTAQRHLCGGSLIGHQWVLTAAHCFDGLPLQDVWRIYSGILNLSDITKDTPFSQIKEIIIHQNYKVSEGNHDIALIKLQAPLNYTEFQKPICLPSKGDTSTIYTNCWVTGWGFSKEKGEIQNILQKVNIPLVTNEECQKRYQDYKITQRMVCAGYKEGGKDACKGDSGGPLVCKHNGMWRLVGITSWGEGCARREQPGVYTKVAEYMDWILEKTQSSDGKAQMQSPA
T1 sequence (P03952 20-390 partner limits assumed): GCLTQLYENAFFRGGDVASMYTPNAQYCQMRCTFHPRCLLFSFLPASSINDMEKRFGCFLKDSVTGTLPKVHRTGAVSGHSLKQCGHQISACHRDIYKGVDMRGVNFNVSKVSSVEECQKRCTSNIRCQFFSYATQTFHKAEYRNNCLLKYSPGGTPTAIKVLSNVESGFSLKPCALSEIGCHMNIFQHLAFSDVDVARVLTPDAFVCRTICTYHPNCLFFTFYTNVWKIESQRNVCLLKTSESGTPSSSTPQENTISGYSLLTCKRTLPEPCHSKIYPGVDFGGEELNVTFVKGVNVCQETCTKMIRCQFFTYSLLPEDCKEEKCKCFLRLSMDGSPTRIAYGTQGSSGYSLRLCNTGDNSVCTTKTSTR
Sequence of Angiotensin converting enzyme 2 (ACE2) (Q9BYF1 18-805, species assumed): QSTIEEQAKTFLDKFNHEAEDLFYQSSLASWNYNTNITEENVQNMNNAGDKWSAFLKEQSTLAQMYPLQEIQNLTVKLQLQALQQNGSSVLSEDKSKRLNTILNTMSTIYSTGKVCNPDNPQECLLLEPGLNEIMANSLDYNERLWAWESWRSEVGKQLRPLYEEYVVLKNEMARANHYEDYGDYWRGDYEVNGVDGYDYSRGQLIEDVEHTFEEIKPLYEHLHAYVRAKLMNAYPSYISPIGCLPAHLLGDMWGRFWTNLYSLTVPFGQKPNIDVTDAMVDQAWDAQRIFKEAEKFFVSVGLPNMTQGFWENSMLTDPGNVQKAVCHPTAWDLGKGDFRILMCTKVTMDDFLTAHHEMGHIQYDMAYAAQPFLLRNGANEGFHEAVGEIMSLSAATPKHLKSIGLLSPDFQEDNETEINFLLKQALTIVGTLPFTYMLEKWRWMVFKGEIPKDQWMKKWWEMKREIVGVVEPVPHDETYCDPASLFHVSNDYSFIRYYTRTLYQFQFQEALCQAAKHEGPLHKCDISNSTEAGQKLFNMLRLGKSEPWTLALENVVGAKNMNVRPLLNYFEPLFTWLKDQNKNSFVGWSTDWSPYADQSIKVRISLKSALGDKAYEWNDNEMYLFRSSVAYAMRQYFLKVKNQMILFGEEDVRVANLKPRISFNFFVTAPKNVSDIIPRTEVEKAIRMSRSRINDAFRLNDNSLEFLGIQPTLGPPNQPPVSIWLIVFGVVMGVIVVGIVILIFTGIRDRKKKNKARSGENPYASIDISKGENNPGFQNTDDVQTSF
Sequence of Urease (P69996 whole entry): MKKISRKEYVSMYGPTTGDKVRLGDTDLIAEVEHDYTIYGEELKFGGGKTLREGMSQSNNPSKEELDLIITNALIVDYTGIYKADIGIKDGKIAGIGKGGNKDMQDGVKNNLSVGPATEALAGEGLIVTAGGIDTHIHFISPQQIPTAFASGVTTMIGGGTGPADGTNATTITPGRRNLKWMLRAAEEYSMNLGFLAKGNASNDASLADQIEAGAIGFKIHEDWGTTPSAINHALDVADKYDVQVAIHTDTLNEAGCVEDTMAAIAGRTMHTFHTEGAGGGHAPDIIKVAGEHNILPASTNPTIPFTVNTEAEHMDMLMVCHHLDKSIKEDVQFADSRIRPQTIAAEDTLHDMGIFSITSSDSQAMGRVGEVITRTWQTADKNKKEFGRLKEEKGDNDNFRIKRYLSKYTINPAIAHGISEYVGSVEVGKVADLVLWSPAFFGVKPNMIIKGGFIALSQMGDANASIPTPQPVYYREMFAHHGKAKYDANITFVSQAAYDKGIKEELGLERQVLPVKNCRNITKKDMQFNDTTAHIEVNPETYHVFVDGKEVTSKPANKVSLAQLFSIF
Sequence of Urease (P14916 whole entry): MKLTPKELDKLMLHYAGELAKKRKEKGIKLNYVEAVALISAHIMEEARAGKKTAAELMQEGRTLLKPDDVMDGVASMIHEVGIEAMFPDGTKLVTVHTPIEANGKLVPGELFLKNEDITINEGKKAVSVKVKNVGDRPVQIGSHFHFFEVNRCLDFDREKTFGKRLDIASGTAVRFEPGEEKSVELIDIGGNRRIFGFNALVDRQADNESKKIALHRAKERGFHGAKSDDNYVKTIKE
T2 sequence (P26262 391-638 limits assumed): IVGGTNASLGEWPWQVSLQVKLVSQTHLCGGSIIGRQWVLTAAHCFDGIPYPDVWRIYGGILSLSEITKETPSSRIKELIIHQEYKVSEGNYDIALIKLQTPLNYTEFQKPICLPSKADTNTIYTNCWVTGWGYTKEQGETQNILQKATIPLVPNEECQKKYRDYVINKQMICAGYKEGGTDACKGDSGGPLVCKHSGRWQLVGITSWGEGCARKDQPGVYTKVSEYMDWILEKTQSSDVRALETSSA
T2 sequence (P26262 20-390 partner limits assumed): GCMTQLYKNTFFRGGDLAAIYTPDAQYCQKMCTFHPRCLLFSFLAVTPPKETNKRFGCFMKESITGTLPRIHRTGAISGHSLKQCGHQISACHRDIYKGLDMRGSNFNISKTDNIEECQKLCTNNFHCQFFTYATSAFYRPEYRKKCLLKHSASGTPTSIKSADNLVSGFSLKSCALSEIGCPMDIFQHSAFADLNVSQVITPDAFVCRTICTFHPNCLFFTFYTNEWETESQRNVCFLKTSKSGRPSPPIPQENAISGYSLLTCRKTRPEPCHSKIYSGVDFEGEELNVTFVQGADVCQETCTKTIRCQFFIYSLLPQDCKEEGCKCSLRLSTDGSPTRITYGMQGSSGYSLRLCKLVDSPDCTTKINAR
Sequence of TF-fVII (P08709 213-466 limits assumed): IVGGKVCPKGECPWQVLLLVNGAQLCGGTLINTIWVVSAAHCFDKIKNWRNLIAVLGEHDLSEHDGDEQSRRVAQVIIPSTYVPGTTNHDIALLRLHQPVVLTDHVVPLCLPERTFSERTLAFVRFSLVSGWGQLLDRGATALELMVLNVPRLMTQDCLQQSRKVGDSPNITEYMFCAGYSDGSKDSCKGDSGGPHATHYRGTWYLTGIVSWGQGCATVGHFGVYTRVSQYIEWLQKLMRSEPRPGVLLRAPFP
Sequence of TF-fVII (P08709 61-212 partner limits assumed): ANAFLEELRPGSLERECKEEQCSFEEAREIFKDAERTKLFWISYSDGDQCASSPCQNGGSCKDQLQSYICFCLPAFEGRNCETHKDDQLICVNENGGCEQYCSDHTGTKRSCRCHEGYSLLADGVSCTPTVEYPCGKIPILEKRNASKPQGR
Sequence of TF-fVII (P13726 33-295 partner): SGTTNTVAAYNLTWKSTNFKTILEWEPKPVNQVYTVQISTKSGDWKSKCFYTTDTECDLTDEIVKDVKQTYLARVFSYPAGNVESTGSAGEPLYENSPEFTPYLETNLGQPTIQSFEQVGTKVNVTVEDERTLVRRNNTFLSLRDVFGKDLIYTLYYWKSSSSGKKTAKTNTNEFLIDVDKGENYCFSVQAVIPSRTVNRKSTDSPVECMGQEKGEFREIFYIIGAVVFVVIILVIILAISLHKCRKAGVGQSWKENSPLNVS
T4 sequence (P03951 388-625 limits assumed): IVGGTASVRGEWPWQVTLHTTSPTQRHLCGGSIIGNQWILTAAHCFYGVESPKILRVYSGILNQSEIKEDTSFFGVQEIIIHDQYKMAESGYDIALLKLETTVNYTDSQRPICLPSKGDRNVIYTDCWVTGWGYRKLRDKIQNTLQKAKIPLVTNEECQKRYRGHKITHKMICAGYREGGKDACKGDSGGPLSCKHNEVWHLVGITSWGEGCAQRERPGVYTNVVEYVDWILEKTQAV
T4 sequence (P03951 19-387 partner limits assumed): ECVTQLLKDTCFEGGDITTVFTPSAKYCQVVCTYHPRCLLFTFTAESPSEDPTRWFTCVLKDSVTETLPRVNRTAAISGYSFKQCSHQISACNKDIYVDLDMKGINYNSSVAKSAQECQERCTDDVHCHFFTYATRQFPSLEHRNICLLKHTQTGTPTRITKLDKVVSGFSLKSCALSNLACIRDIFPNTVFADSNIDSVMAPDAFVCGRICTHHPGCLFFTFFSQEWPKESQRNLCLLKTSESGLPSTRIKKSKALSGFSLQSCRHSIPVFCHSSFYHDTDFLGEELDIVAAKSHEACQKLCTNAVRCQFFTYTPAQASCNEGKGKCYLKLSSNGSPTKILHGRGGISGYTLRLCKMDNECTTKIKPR
Sequence of Beta-lactamase (P52700 34-290): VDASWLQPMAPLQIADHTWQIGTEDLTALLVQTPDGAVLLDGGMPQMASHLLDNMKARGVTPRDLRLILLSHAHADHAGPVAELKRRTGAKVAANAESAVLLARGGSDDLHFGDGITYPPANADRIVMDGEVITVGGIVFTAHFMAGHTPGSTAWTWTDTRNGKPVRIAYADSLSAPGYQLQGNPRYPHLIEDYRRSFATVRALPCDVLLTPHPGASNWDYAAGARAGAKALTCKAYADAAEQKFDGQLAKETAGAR
Sequence of Urokinase-type plasminogen activator (uPA) (Mus musculus, UniProt P06869) (P06869 21-433): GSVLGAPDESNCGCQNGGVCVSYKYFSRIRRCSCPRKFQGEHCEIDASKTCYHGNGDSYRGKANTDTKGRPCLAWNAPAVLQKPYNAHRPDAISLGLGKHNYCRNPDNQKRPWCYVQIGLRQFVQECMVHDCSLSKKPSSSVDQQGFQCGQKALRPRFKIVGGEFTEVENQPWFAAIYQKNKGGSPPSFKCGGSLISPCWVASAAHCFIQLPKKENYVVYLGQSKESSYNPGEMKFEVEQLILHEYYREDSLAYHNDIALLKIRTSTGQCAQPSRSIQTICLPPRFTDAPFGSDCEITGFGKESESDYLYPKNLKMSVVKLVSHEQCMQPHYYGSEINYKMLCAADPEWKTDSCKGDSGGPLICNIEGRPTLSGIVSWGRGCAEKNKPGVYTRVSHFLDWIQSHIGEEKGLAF

As for `CC[C@H](C)[C@@H]1NC(=O)[C@H](CCC(=O)O)NC(=O)[C@H]([C@@H](C)CC)NC(=O)[C@@H]2CCCN2C(=O)[C@@H]2CSCc3cc(cc(c3)CSC[C@@H](C(=O)NCC(N)=O)NC(=O)[C@@H]3CCCN3C(=O)[C@H](Cc3ccccc3)NC1=O)CSC[C@H](NC(=O)[C@H](C)N)C(=O)N[C@@H](CO)C(=O)N[C@@H]([C@@H](C)O)C(=O)N[C@@H](CCC(=O)O)C(=O)N[C@@H](CCCNC(=N)N)C(=O)N[C@@H](CCCNC(=N)N)C(=O)N[C@@H](Cc1ccc(O)cc1)C(=O)N2` [PK4] (H-ACSTERRYCPIEIFPCG-NH2; linker 2-9-16 via TBMB), on plasma kallikrein [1], the IC50 was 33 nM. Still for that read-out and setting: for `CSCC[C@@H]1NC(=O)[C@H](CC(C)C)NC(=O)[C@H](CC(=O)O)NC(=O)[C@H](CCC(=O)O)NC(=O)[C@H](Cc2ccc(O)cc2)NC(=O)[C@@H]2CSCc3cc(cc(c3)CSC[C@@H](C(=O)NCC(N)=O)NC(=O)[C@H](Cc3c[nH]c4ccccc34)NC1=O)CSC[C@H](NC(=O)[C@H](C)N)C(=O)N[C@@H](C)C(=O)N1CCC[C@H]1C(=O)N[C@@H](Cc1c[nH]c3ccccc13)C(=O)N[C@@H](CCCNC(=N)N)C(=O)N[C@@H]([C@@H](C)O)C(=O)N[C@@H](C)C(=O)N2` [PK6] (H-ACAPWRTACYEDLMWCG-NH2; linker 2-9-16 via TBMB) the value was 21.2 nM; for `CC(C)[C@@H]1NC(=O)[C@H](CCCNC(=N)N)NC(=O)[C@@H]2CSCc3cc(cc(c3)CSC[C@@H](C(=O)NCC(N)=O)NC(=O)[C@@H]3CCCN3C(=O)[C@H]([C@@H](C)O)NC(=O)[C@H](Cc3c[nH]c4ccccc34)NC(=O)[C@H](CC(N)=O)NC1=O)CSC[C@H](NC(=O)[C@H](C)N)C(=O)NCC(=O)N[C@@H]([C@@H](C)O)C(=O)NCC(=O)N[C@@H](CCC(=O)O)C(=O)NCC(=O)N[C@@H](CCCNC(=N)N)C(=O)N2` [PK13] (H-ACGTGEGRCRVNWTPCG-NH2; linker 2-9-16 via TBMB), 39.1 nM. In the case of `CC(C)C[C@@H]1NC(=O)[C@H](C)NC(=O)[C@H](CCC(=O)O)NC(=O)[C@H](CC(=O)O)NC(=O)[C@H](C)NC(=O)[C@@H]2CCCN2C(=O)[C@@H]2CSCc3cc(cc(c3)CSC[C@@H](C(=O)NCC(N)=O)NC1=O)CSC[C@H](NC(=O)[C@H](C)N)C(=O)N[C@@H](CO)C(=O)N[C@@H](CC(=O)O)C(=O)N[C@@H](CCCNC(=N)N)C(=O)N[C@@H](Cc1ccccc1)C(=O)N[C@@H](CCCNC(=N)N)C(=O)N[C@@H](CC(N)=O)C(=O)N2` [PK15] (H-ACSDRFRNCPADEALCG-NH2; linker 2-9-16 via TBMB (inferred)), the “thrombin formation in human plasma” value in [2] is “delayed thrombin formation”. Moreover, in data set [2] (5, 50, 500 or 5000 nM), the “lag time of thrombin generation compared to control sample (FIG. 8)” value is listed as “dose-dependent prolongation of lag time”. In [3], the “interruption of intrinsic coagulation pathway / contact activation in human plasma ex vivo” value is “efficiently interrupted the intrinsic coagulation pathway” and the IC50 stood at 0.16 µM. Also, in [3] (5 μM, plasma of three donors), the “activation of factor XIIa and plasma kallikrein in human plasma” value is given as “essentially be suppressed”. In addition, the “inhibition of mouse plasma kallikrein” value against mouse plasma kallikrein was “did not inhibit”. Moreover, at plasma kallikrein [1], the Ki turned out to be 0.0015 µM and the IC50 was found to be 1.7 nM. Moreover, at human thrombin, the “inhibition of human thrombin” value is on record as “did not inhibit”. For the same compound, on plasma kallikrein [4] (24 h at 37° C.), the “cleavage of a peptide bond on incubation with kallikrein” value is 90%. For the same compound, on plasma kallikrein [4] (cleaved in one of the loops), the “state after prolonged incubation with human plasma kallikrein” value is “remained intact and active”. Also, the “inhibition of human factor XIa” value on factor XIa was “did not inhibit”. Take CCFSWRCRC: the Ki at Chymotrypsin was 1 µM. Regarding CLRLLQWFLWAC, the Ki at DNase II is 0.2 µM. For CPAYSRYLDC, the Ki in data set [5] was 0.4 µM. Take CQPHPGQTC: the IC50 on Pancreatic lipase is 16 µM. In the case of CSWRGLENHRMC, in [6], the Ki was 6.7 µM. With CVHSPNREC, the IC50 on Beta-lactamase is 9 µM.

As for EEWEVLCWTWETCER, the IC50 on TF-fVII was 0.0015 µM. On to GDYSHCSPLRYYPWWKCTYPDP, for which the Ki in data set [7] was 0.0028 µM. Take KCCYSL: the Ki at ErbB-2 was 30 µM. As to SRFKVWWAAF, the IC50 at Human kallikrein 2 is 3.4 µM. As to YDFYWW, the IC50 on Urease is 30 µM. As to aprotinin, the “thrombin formation in human plasma” value in data set [2] is “had no effect”. Besides, in [2] (5 μM inhibitor concentration), the “lag time of thrombin activation” value is listed as “more prolonged by aprotinin than by the small molecule inhibitor”. The IC50 in [3] was determined as 5 µM. In [8], the adverse effects entry is “anaphylaxis and renal toxicity”.
